Results reported in US12391672B2, “Solid forms comprising (S)-4-(4-(4-(((2-(2,6-dioxopiperidin-3-yl)-1-oxoisoindolin-4-yl)oxy)methyl)benzyl)piperazin-1-yl)-3-fluorobenzonitrile and salts thereof, and compositions comprising and methods of using the same” (Celgene Corporation, priority 2019, dated 2025).
“Also recorded” adds a separate entry of the source.

Legend:
[1] = Solid state stability under accelerated storage conditions; assay type: physicochemical
Outline: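 Solid forms stored at 60 °C and 60 °C/75% RH (Form A 1 week, Form B 2 weeks); Form K held 14 d at 40 °C, 40 °C/75% RH, 60 °C, 60 °C/75% RH and light, versus refrigerated/ambient. Assessed by DSC/TGA, appearance, HPLC purity, chiral HPLC (S-isomer area %) and XRPD post-DVS.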

[2] = Mechanical stressing (grinding, compression); assay type: physicochemical; details: compressed under 2000 psi for 1 minute
Method: Mechanical stressing experiment: the following table describes three experiments involving mechanical stressing of Form A and/or Form B of free base Compound 1 by grinding with a mortar and pestle.
Shear Sensitivity: Form K was compressed under 2000 psi for 1 minute and analyzed by XRPD.

N#Cc1ccc(N2CCN(Cc3ccc(COc4cccc5c4CN([C@H]4CCC(=O)NC4=O)C5=O)cc3)CC2)c(F)c1.O [Form K of a free base of Compound 1]
Physical stability (DSC, PXRD, TGA) ([1]; 14 d at 40° C., 40° C./75% RH, 60° C., 60° C./75% RH, light chamber): there does not appear to be any major change in the crystal form and water content
physical and chemical stability ([1]; accelerated stability conditions): chemically and physically stable; also recorded: physically and chemically stable
Solid state chiral stability ([1]; accelerated stability conditions, initial 97.1 area % S-isomer): no change in the chiral stability
Solid state chemical stability (HPLC) ([1]; accelerated storage conditions, 14 d): no significant degradation was observed
Solid state chemical stability (HPLC), light ([1]; exposed to light (1.2 million lux)): Minor degradation
Shear Sensitivity (XRPD) [2]: remained as Form K
